Measured values: the NIST ThermoML archive (doi:10.1016/j.jct.2019.02.011)

Assay: xn = mol fraction of the nth substance listed
Details: Liquid, Vibrating tube method

COC(=O)OC [dimethyl carbonate] + CCO
mass density [kg/m3]
Details	100 kPa	5000 kPa	10000 kPa	15000 kPa	20000 kPa	25000 kPa	30000 kPa	35000 kPa	40000 kPa
288.15 K, x1 = 0.0252	804.2	808	812.06	815.89	819.61	822.92	826.21	829.16	832.33
288.15 K, x1 = 0.0506	813.67	817.57	821.64	825.53	829.25	832.61	835.95	838.9	842.19
288.15 K, x1 = 0.0757	823.01	826.96	831.04	834.98	838.69	842.06	845.41	848.42	851.7
288.15 K, x1 = 0.1003	831.96	835.91	839.99	843.94	847.7	851.08	854.48	857.54	860.78
288.15 K, x1 = 0.1508	849.93	853.94	858.08	862.04	865.84	869.28	872.69	875.76	879.06
288.15 K, x1 = 0.2	866.84	870.91	875.1	879.08	882.88	886.33	889.8	892.93	896.24
288.15 K, x1 = 0.2547	885.11	889.19	893.38	897.43	901.27	904.73	908.21	911.35	914.67
288.15 K, x1 = 0.3002	899.9	903.99	908.19	912.25	916.09	919.56	923.05	926.24	929.57
288.15 K, x1 = 0.3498	915.51	919.65	923.86	927.88	931.71	935.24	938.74	941.95	945.28
288.15 K, x1 = 0.4	930.78	934.94	939.15	943.23	947.06	950.6	954.16	957.37	960.71
288.15 K, x1 = 0.449	945.14	949.35	953.57	957.66	961.48	965.03	968.6	971.87	975.22
288.15 K, x1 = 0.4996	959.51	963.73	967.96	972.06	975.93	979.49	983.06	986.34	989.7
288.15 K, x1 = 0.5507	973.56	977.78	982.01	986.13	989.99	993.56	997.14	1000.43	1003.8
288.15 K, x1 = 0.6005	986.73	990.95	995.19	999.32	1003.17	1006.8	1010.39	1013.69	1017.06
288.15 K, x1 = 0.6455	998.17	1002.45	1006.64	1010.83	1014.68	1018.32	1021.92	1025.22	1028.6
288.15 K, x1 = 0.6931	1009.92	1014.21	1018.41	1022.55	1026.4	1030.05	1033.65	1037.01	1040.4
288.15 K, x1 = 0.7502	1023.43	1027.72	1031.92	1036.08	1039.92	1043.58	1047.24	1050.61	1054
288.15 K, x1 = 0.8009	1035	1039.3	1043.51	1047.68	1051.52	1055.18	1058.85	1062.22	1065.62
288.15 K, x1 = 0.8505	1046	1050.3	1054.51	1058.68	1062.52	1066.19	1069.82	1073.25	1076.6
288.15 K, x1 = 0.9008	1056.7	1061.01	1065.22	1069.4	1073.24	1076.92	1080.55	1083.98	1087.34
288.15 K, x1 = 0.9255	1061.81	1066.14	1070.35	1074.54	1078.38	1082.06	1085.69	1089.13	1092.49
288.15 K, x1 = 0.9477	1066.36	1070.68	1074.89	1079.08	1082.92	1086.6	1090.23	1093.68	1097.04
288.15 K, x1 = 0.9735	1071.55	1075.89	1080.08	1084.28	1088.11	1091.79	1095.43	1098.88	1102.23
288.15 K, x1 = 1	1076.83	1081.15	1085.32	1089.52	1093.35	1096.99	1100.63	1104.08	1107.4
293.15 K, x1 = 0.0252	799.52	803.53	807.63	811.64	815.31	819.03	822.43	825.77	828.8
293.15 K, x1 = 0.0506	808.93	813.04	817.2	821.2	824.93	828.7	832.16	835.5	838.59
293.15 K, x1 = 0.0757	818.21	822.32	826.48	830.53	834.27	838.04	841.5	844.9	848.05
293.15 K, x1 = 0.1003	827.05	831.21	835.37	839.43	843.17	846.95	850.46	853.86	857.02
293.15 K, x1 = 0.1508	844.9	849.11	853.32	857.39	861.19	864.97	868.5	871.96	875.19
293.15 K, x1 = 0.2	861.69	865.96	870.22	874.34	878.21	882.03	885.62	889.09	892.34
293.15 K, x1 = 0.2547	879.83	884.11	888.37	892.5	896.38	900.3	903.95	907.43	910.71
293.15 K, x1 = 0.3002	894.46	898.79	903.11	907.24	911.13	915.06	918.71	922.25	925.54
293.15 K, x1 = 0.3498	909.95	914.32	918.65	922.78	926.73	930.66	934.33	937.83	941.14
293.15 K, x1 = 0.4	925.11	929.49	933.81	937.95	941.91	945.85	949.52	953.08	956.41
293.15 K, x1 = 0.449	939.35	943.78	948.11	952.25	956.22	960.16	963.84	967.41	970.75
293.15 K, x1 = 0.4996	953.6	958.04	962.37	966.52	970.5	974.44	978.13	981.71	985.12
293.15 K, x1 = 0.5507	967.53	971.96	976.3	980.45	984.45	988.38	992.09	995.67	999.1
293.15 K, x1 = 0.6005	980.58	985.07	989.41	993.51	997.52	1001.46	1005.17	1008.76	1012.2
293.15 K, x1 = 0.6455	991.96	996.45	1000.79	1004.95	1008.96	1012.9	1016.62	1020.22	1023.68
293.15 K, x1 = 0.6931	1003.6	1008.14	1012.44	1016.6	1020.62	1024.56	1028.29	1031.89	1035.36
293.15 K, x1 = 0.7502	1017.03	1021.58	1025.93	1030.04	1034.07	1038.07	1041.8	1045.41	1048.9
293.15 K, x1 = 0.8009	1028.54	1033.09	1037.44	1041.56	1045.6	1049.6	1053.34	1056.96	1060.46
293.15 K, x1 = 0.8505	1039.42	1043.97	1048.32	1052.45	1056.49	1060.49	1064.24	1067.85	1071.38
293.15 K, x1 = 0.9008	1050.05	1054.61	1058.94	1063.09	1067.15	1071.17	1074.9	1078.5	1082.06
293.15 K, x1 = 0.9255	1055.15	1059.71	1064.04	1068.18	1072.28	1076.27	1080.01	1083.62	1087.15
293.15 K, x1 = 0.9477	1059.65	1064.21	1068.54	1072.7	1076.81	1080.81	1084.52	1088.13	1091.64
293.15 K, x1 = 0.9735	1064.83	1069.39	1073.72	1077.83	1081.94	1085.94	1089.66	1093.25	1096.74
293.15 K, x1 = 1	1070.06	1074.62	1078.93	1083.01	1087.08	1091.03	1094.75	1098.34	1101.84
298.15 K, x1 = 0.0252	795.08	799.26	803.35	807.39	811.05	–	–	–	–
298.15 K, x1 = 0.0506	804.43	808.65	812.8	816.89	820.61	–	–	–	–
298.15 K, x1 = 0.0757	813.64	817.91	822.06	826.15	829.93	–	–	–	–
298.15 K, x1 = 0.1003	822.42	826.69	830.89	834.98	838.77	–	–	–	–
298.15 K, x1 = 0.1508	840.14	844.46	848.67	852.81	856.66	–	–	–	–
298.15 K, x1 = 0.2	856.81	861.18	865.45	869.59	873.46	–	–	–	–
298.15 K, x1 = 0.2547	874.78	879.19	883.47	887.66	891.55	–	–	–	–
298.15 K, x1 = 0.3002	889.24	893.65	897.98	902.17	906.13	–	–	–	–
298.15 K, x1 = 0.3498	904.6	909.01	913.35	917.59	921.56	–	–	–	–
298.15 K, x1 = 0.4	919.63	924.09	928.49	932.73	936.77	–	–	–	–
298.15 K, x1 = 0.449	933.8	938.26	942.66	946.91	950.95	–	–	–	–
298.15 K, x1 = 0.4996	947.93	952.44	956.85	961.1	965.16	–	–	–	–
298.15 K, x1 = 0.5507	961.74	966.24	970.71	974.95	–	–	–	–	–
298.15 K, x1 = 0.6005	974.67	979.17	983.64	987.89	–	–	–	–	–
298.15 K, x1 = 0.6455	985.93	990.48	994.96	999.21	–	–	–	–	–
298.15 K, x1 = 0.6931	997.5	1002.05	1006.53	1010.78	–	–	–	–	–
298.15 K, x1 = 0.7502	1010.81	1015.36	1019.85	1024.1	–	–	–	–	–
298.15 K, x1 = 0.8009	1022.25	1026.8	1031.29	1035.55	–	–	–	–	–
298.15 K, x1 = 0.8505	1033.01	1037.56	1042.06	1046.31	–	–	–	–	–
298.15 K, x1 = 0.9008	1043.58	1048.13	1052.63	1056.89	–	–	–	–	–
298.15 K, x1 = 0.9255	1048.64	1053.19	1057.7	1061.95	–	–	–	–	–
298.15 K, x1 = 0.9477	1053.11	1057.69	1062.19	1066.43	–	–	–	–	–
298.15 K, x1 = 0.9735	1058.28	1062.83	1067.34	1071.56	–	–	–	–	–
298.15 K, x1 = 1	1063.45	1068	1072.51	1076.72	–	–	–	–	–
